Here are results for 3 compounds from patent publication US20260007133A1, “HERBICIDAL COMPOSITION COMPRISING AZINE COMPOUNDS” (BASF SE, priority 2022, published 2026).

What all share (format): in vivo
The test system of test [1] is Euphorbia heterophylla. Description: Greenhouse pre-emergence (PRE) herbicidal test on EPHHL. The settings on record: PRE; for % activity: EPHHL, 18 DAT. The procedure, abridged:
(§1)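 Visual 0–100 rating at 20 days after treatment; 0 = normal growth, 100 = no emergence or complete kill of shoots. Pre-emergent application to seeded pots of loamy sand (~3.0% humus), species-dependent temperature 10-25° C or 20-35° C.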

The test system of another test is Alopecurus myosuroides. Description: Greenhouse pre-emergence (PRE) herbicidal test on ALOMY. The settings on record: PRE; for % activity: ALOMY, 18 DAT. Summed up:
as §1

Test [2] deals with Abutilon theophrasti. Description: Greenhouse post-emergence (POST) herbicidal test on ABUTH. The following applies: POST; for % activity: ABUTH, 18 DAT. Summed up: (§2)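 Weeds grown in loamy sand (~3.0% humus) to 3–15 cm were sprayed post-emergence with compounds suspended or emulsified in water, formulated as 5% emulsion concentrates. Plants were kept at 10-25 °C or 20-35 °C by species. Damage was scored 0–100 (100 = complete destruction) at 20 DAT.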

Another test concerns Setaria viridis. Description: Greenhouse pre-emergence (PRE) herbicidal test on SETVI. The following applies: PRE. Summed up: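 Damage was rated visually on a 0 to 100 scale at 20 days after treatment, where 0 meant normal growth and 100 meant no emergence or complete kill of above-ground parts. Compounds were applied in water to freshly sown loamy-sand pots.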
Test [3] has as its system Amaranthus retroflexus. Description: Greenhouse pre-emergence (PRE) herbicidal test on AMARE. The settings on record: PRE; for % activity: AMARE, 18 DAT. On the procedure: (§3) The culture containers used were plastic pots containing loamy sand with approximately 3.0% of humus as substrate. The seeds of the test plants were sown separately for each species.
The containers were irrigated gently to promote germination and growth and subsequently covered with transparent plastic hoods until the plants had rooted.
(§4) Depending on the species, the plants were kept at 10-25° C. and 20-35° C., respectively.
(§5) The test period extended over 2 to 4 weeks. During this time, the plants were tended and their response to the individual treatments was evaluated.
(§6) Evaluation was carried out using a scale from 0 to 100. 100 means no emergence of the plants, or complete destruction of at least the above-ground parts, and 0 means no damage or normal course of growth. A good herbicidal activity is given at values of at least 70, and very good herbicidal activity is given at values of at least 85.
As indicated application was either post emergent (POST) at the respective growth stage (GS) of the weed (BBCH code), or pre-emergent (PRE). […]

The subject of test [4] is Euphorbia heterophylla. Description: Greenhouse post-emergence (POST) herbicidal test on EPHHL. The settings on record: POST. Summed up: as §2
For test [5], the system named is Echinochloa crus-galli. Description: Greenhouse pre-emergence (PRE) herbicidal test on ECHCG. The settings on record: PRE, ECHCG, 18 DAT.
Another test deals with Digitaria sanguinalis. Description: Greenhouse post-emergence (POST) herbicidal test on DIGSA. The settings on record: POST, DIGSA, 18 DAT. Summed up:
as §2

Test [6] concerns Amaranthus retroflexus. Description: Greenhouse post-emergence (POST) herbicidal test on AMARE. The settings on record: POST. Summed up:
as §2

For test [7], the system named is Echinochloa crus-galli. Description: Greenhouse post-emergence (POST) herbicidal test on ECHCG. The following applies: POST, ECHCG, 18 DAT. Summed up:
as §2

In a further test the test system is Commelina benghalensis. Description: Greenhouse pre-emergence (PRE) herbicidal test on COMBE. The settings on record: PRE; for % activity: COMBE, 18 DAT. Summed up:
as §1

A further test concerns Geranium pusillum. Description: Greenhouse post-emergence (POST) herbicidal test on GERPU. The settings on record: POST; for % activity: GERPU, 18 DAT. Summed up: as §2
The subject of test [8] is Abutilon theophrasti. Description: Greenhouse pre-emergence (PRE) herbicidal test on ABUTH. The following applies: PRE; for % activity: ABUTH, 18 DAT. Summed up: as §1
A further test has as its system Lolium multiflorum. Description: Greenhouse pre-emergence (PRE) herbicidal test on LOLMU. The following applies: PRE; for % activity: LOLMU, 18 DAT. The procedure, abridged: as §1
The subject of another test is Ambrosia artemisiifolia. Description: Greenhouse pre-emergence (PRE) herbicidal test on AMBEL. The settings on record: Ambrosia artemisiifolia, pre-emergence, 480 h, PRE, 20 DAT.
The next test relates to Ipomoea hederacea. Description: Greenhouse post-emergence (POST) herbicidal test on IPOHE. The following applies: Ipomoea hederacea, post-emergence, 480 h, POST, 20 DAT. How it is done: as §3
For the post-emergence treatment, the test plants were grown to a plant height of from 3 to 15 cm, depending on the plant habit, and only then treated with the active compounds which had been suspended or emulsified in water. To this end, the test plants were either sown directly, and grown in the same containers, or they were first grown separately as seedlings and transplanted into the test containers a few days prior to treatment.
as §4, §5, §6
If not stated differently, the respective components A and B, and if appropriate, C were formulated as a 5% by weight strength emulsion concentrate and, with addition of the amount of solvent system, introduced into the spray liquor used for applying the active compound.
As indicated application was either post emergent (POST) at the respective growth stage (GS) of the weed (BBCH code), or pre-emergent (PRE).
Assessment was 20 days after treatment (DAT).

As for `Cc1ccc2c(c1)[C@H](Nc1nc(N)nc(C(C)F)n1)[C@@H](C)C2` (stereo partly shown) [Indaziflam, indaziflam], the “% activity” value is 10% in the test on Euphorbia heterophylla [1] (Indaziflam solo 1 gai/ha); 5% with Euphorbia heterophylla [1] (Indaziflam solo 4 gai/ha); 10% in the test on Alopecurus myosuroides (Indaziflam solo 1 gai/ha); 75% in the test on Alopecurus myosuroides (Indaziflam solo 4 gai/ha); 15% with Abutilon theophrasti [2] (Indaziflam solo 2 gai/ha); 30% with Abutilon theophrasti [2] (Indaziflam solo 4 gai/ha). Further, the “% activity” value worked out at 40% in the test on Setaria viridis (SETVI, Indaziflam solo 1 gai/ha, 18 DAT); 10% in the test on Amaranthus retroflexus [3] (Indaziflam solo 1 gai/ha); 50% with Amaranthus retroflexus [3] (Indaziflam solo 4 gai/ha); 40% with Euphorbia heterophylla [4] (EPHHL, Indaziflam solo 4 gai/ha, 18 DAT); 30% in the test on Echinochloa crus-galli [5] (Indaziflam solo 1 gai/ha); 85% in the test with Echinochloa crus-galli [5] (Indaziflam solo 4 gai/ha). Moreover, the “% activity” value with Echinochloa crus-galli [5] (Indaziflam solo 8 gai/ha) is 80%; in the test on Digitaria sanguinalis (Indaziflam solo 1 gai/ha), 0%; in the test on Digitaria sanguinalis (Indaziflam solo 2 gai/ha) it was 5%; with Digitaria sanguinalis (Indaziflam solo 8 gai/ha) it was 20%; in the test on Amaranthus retroflexus [6] (AMARE, Indaziflam solo 1 gai/ha, 18 DAT) it was 65%; with Echinochloa crus-galli [7] (Indaziflam solo 1 gai/ha) it was 0%. Besides, the “% activity” value in the test with Echinochloa crus-galli [7] (Indaziflam solo 2 gai/ha) was 0%; with Echinochloa crus-galli [7] (Indaziflam solo 4 gai/ha), 20%; in the test on Echinochloa crus-galli [7] (Indaziflam solo 8 gai/ha), 60%; with Commelina benghalensis (Indaziflam solo 1 gai/ha), 20%; in the test on Commelina benghalensis (Indaziflam solo 2 gai/ha), 10%; with Commelina benghalensis (Indaziflam solo 8 gai/ha), 40%. The “% activity” value with Geranium pusillum (Indaziflam solo 4 gai/ha) amounted to 50%; with Geranium pusillum (Indaziflam solo 8 gai/ha), 50%; in the test on Abutilon theophrasti [8] (Indaziflam solo 1 gai/ha), 0%; in the test on Abutilon theophrasti [8] (Indaziflam solo 4 gai/ha), 25%; with Lolium multiflorum (Indaziflam solo 1 gai/ha), 10%; in the test on Lolium multiflorum (Indaziflam solo 2 gai/ha) it was 10%. Also, the “% activity” value in the test with Lolium multiflorum (Indaziflam solo 4 gai/ha) was determined as 40%.

For `CC(C)N(C(=O)SCC(Cl)=C(Cl)Cl)C(C)C` [Tri-Allate, Tri-allate], the pest or weed control – broadly, the degree to which the test organism was suppressed or injured, in per cent – at 600 g/ha with Ambrosia artemisiifolia (600 gai/ha) came to 10%; in the test on Euphorbia heterophylla [1] (Euphorbia heterophylla, pre-emergence, 480 h, 600 gai/ha, 20 DAT) it was 10%; in the test on Ipomoea hederacea (600 gai/ha), 10%; with Setaria viridis (Setaria viridis, pre-emergence, 480 h, 600 gai/ha, 20 DAT), 0%; with Amaranthus retroflexus [3] (Amaranthus retroflexus, pre-emergence, 480 h, 600 gai/ha, 20 DAT), 10%; with Euphorbia heterophylla [4] (Euphorbia heterophylla, post-emergence, 480 h, 600 gai/ha, 20 DAT) it was 10%. In addition, the pest or weed control at 600 g/ha came out at 25% in the test with Amaranthus retroflexus [6] (Amaranthus retroflexus, post-emergence, 480 h, 600 gai/ha, 20 DAT); 0% with Commelina benghalensis (Commelina benghalensis, pre-emergence, 480 h, 600 gai/ha, 20 DAT); 10% with Geranium pusillum (Geranium pusillum, post-emergence, 480 h, 600 gai/ha, 20 DAT); 10% in the test on Abutilon theophrasti [8] (Abutilon theophrasti, pre-emergence, 480 h, 600 gai/ha, 20 DAT); 0% in the test on Lolium multiflorum (Lolium multiflorum, pre-emergence, 480 h, 600 gai/ha, 20 DAT). In addition, the pest or weed control at 1200 g/ha in the test on Ambrosia artemisiifolia (1200 gai/ha) was 25%; in the test with Euphorbia heterophylla [1] (Euphorbia heterophylla, pre-emergence, 480 h, 1200 gai/ha, 20 DAT), 10%; in the test on Alopecurus myosuroides (Alopecurus myosuroides, pre-emergence, 480 h, 1200 gai/ha, 20 DAT) it was 0%; in the test on Ipomoea hederacea (1200 gai/ha) it was 0%; in the test with Abutilon theophrasti [2] (Abutilon theophrasti, post-emergence, 480 h, 1200 gai/ha, 20 DAT), 0%; in the test with Amaranthus retroflexus [3] (Amaranthus retroflexus, pre-emergence, 480 h, 1200 gai/ha, 20 DAT) it was 10%. Also, the pest or weed control at 1200 g/ha amounted to 10% in the test on Euphorbia heterophylla [4] (Euphorbia heterophylla, post-emergence, 480 h, 1200 gai/ha, 20 DAT); 45% in the test on Amaranthus retroflexus [6] (Amaranthus retroflexus, post-emergence, 480 h, 1200 gai/ha, 20 DAT); 10% in the test on Lolium multiflorum (Lolium multiflorum, pre-emergence, 480 h, 1200 gai/ha, 20 DAT).

With `CCNc1nc(Cl)nc(NC(C)(C)C)n1` [Terbutylazine], the pest or weed control at 15.6 g/ha amounted to 0% in the test with Ambrosia artemisiifolia (15.6 gai/ha); 0% with Alopecurus myosuroides (Alopecurus myosuroides, pre-emergence, 480 h, 15.6 gai/ha, 20 DAT); 0% with Ipomoea hederacea (15.6 gai/ha); 0% in the test on Commelina benghalensis (Commelina benghalensis, pre-emergence, 480 h, 15.6 gai/ha, 20 DAT); 0% in the test with Abutilon theophrasti [8] (Abutilon theophrasti, pre-emergence, 480 h, 15.6 gai/ha, 20 DAT); 0% with Lolium multiflorum (Lolium multiflorum, pre-emergence, 480 h, 15.6 gai/ha, 20 DAT). The pest or weed control at 62.5 g/ha turned out to be 0% with Euphorbia heterophylla [1] (Euphorbia heterophylla, pre-emergence, 480 h, 62.5 gai/ha, 20 DAT); 0% in the test with Alopecurus myosuroides (Alopecurus myosuroides, pre-emergence, 480 h, 62.5 gai/ha, 20 DAT); 0% in the test on Abutilon theophrasti [2] (Abutilon theophrasti, post-emergence, 480 h, 62.5 gai/ha, 20 DAT); 0% in the test with Amaranthus retroflexus [3] (Amaranthus retroflexus, pre-emergence, 480 h, 62.5 gai/ha, 20 DAT); 60% in the test with Amaranthus retroflexus [6] (Amaranthus retroflexus, post-emergence, 480 h, 62.5 gai/ha, 20 DAT); 0% in the test on Commelina benghalensis (Commelina benghalensis, pre-emergence, 480 h, 62.5 gai/ha, 20 DAT). In addition, in the test with Abutilon theophrasti [8] (Abutilon theophrasti, pre-emergence, 480 h, 62.5 gai/ha, 20 DAT), the pest or weed control at 62.5 g/ha amounted to 0%.
